US7098237B1, “Remedies for ischemia reperfusion injury” (Shionogi & Co., Ltd., priority 1998, dated 2006)

Experiments:
[1] = system: Total Hepatic Vascular Exclusion Model (liver ischemia reperfusion); assay: Blood flow in the hepatic tissue by administration before ischemia (laser Doppler method); assay type: in vivo, Beagle dogs; conditions: 0.2 mg/kg/hr continuous i.v. for one hour before ischemia
Description: (§1) Beagle dogs (female, 10 to 12 kg) are used for experimental animals. Under the control of general anesthesia by inserting a tube into the trachea, a bypass was formed between the portal vein, femoral vein and external jugular vein. […] An auxiliary circulation is applied during this two hour's operation. Ischemia is continued for two hours, and reperfusion of the blood is resumed by releasing the clump. Various physiological changes are confirmed under laparotomy until three hours after reperfusion and thereafter abdomen is sutured (the method for maintaining anesthesia during this period follows the existing protocol, and fluctuation of the blood pressure and the like are not corrected by different anesthetic methods). The blood is collected from the peripheral artery to measure AST, ALT and LDH as indexes of the hepatic functions. Survival at two weeks after the surgery is confirmed.
A dosage of 0.2 mg/kg/hr of the compound (1) was administered by continuous intravenous injection through the peripheral vein during the period of one hour from before ischemia to the occurrence of ischemia.
(§2) The blood flow in the hepatic tissue was measured using a laser Doppler method.

[2] = system: Total Hepatic Vascular Exclusion Model (liver ischemia reperfusion); assay: Blood flow in the hepatic tissue by administration after ischemia (laser Doppler method); assay type: in vivo, Beagle dogs; conditions: 0.2 mg/kg/hr continuous i.v. for one hour from 20 minutes before reperfusion to 40 minutes after reperfusion
Experimental: as §2
(§3) The experiments were carried out by the same method as in Example 1. A dosage of 0.2 mg/kg/hr of the compound (1) was administered by continuous intravenous injection through the peripheral vein for one hour from 20 minutes before blood reperfusion to 40 minutes after the reperfusion.
The blood flow in the hepatic tissue was measured by the same method as in Examples 2 and 3.

[3] = system: Total Hepatic Vascular Exclusion Model (liver ischemia reperfusion); assay: Hepatic function related factors (AST, ALT, LDH) by administration after ischemia; assay type: in vivo, Beagle dogs; conditions: 0.2 mg/kg/hr continuous i.v. for one hour from 20 minutes before reperfusion to 40 minutes after reperfusion
Description: as §1, §3

[4] = system: Total Hepatic Vascular Exclusion Model (liver ischemia reperfusion); assay: Hepatic function related factors (AST, ALT, LDH) by administration before ischemia, Total Hepatic Vascular Exclusion Model; assay type: in vivo, Beagle dogs; conditions: 0.2 mg/kg/hr continuous i.v. for one hour before ischemia; 2 h ischemia then reperfusion; peripheral artery blood
Description: as §1, with “is” for “was”, “methods).” for “methods). The blood is collected from the peripheral artery to measure AST, ALT and LDH as indexes of the hepatic functions.”
The test compound is administered before and after warm ischemia. The compound is administered by intravenous injection.
Various factors related to the hepatic function and blood flow of hepatic tissues were measured by sampling over time from the peripheral artery and hepatic vein.
as §1
The experimental group is divided into two groups with and without administration of the compound (1). […]

[5] = system: lung injury after small intestine ischemia reperfusion; conditions: Am. J. Physiol., 268: G397, 1995; cited from earlier work

Row | SMILES | blood flow in the liver after reperfusion compared with the control group (FIG. 4) [1] | blood flow after reperfusion compared with the control group (FIG. 8) [2] | ALT value compared with the control group (FIG. 6) [3] | AST value compared with the control group (FIG. 5) [3] | LDH value compared with the control group (FIG. 7) [3] | ALT value compared with the control group (FIG. 2) [4] | AST value compared with the control group (FIG. 1) [4] | LDH value compared with the control group (FIG. 3) [4] | occurrence of lung injury accompanied by reperfusion of the small intestine [5]
1 | CCc1c(C(=O)C(N)=O)c2c(OCC(=O)[O-])cc(C)cc2n1Cc1ccccc1.[Na+] [compound (1)] | significantly increased | significantly increased | significantly suppressed | significantly suppressed | significantly suppressed | significantly suppressed | significantly suppressed | significantly suppressed | 
2 | CCN(CC)CCCC(C)Nc1c2ccc(Cl)cc2nc2ccc(OC)cc12 (stereo not drawn) [quinacrine] |  |  |  |  |  |  |  |  | can be prevented
